What was measured:
[1] = target: NACHT, LRR and PYD domains-containing protein 3 (Mus musculus) (UniProt Q8R4B8); experiment: Inhibition of NLRP3 inflammasome activation in LPS/ATP-induced C57BL/6 mouse BMDMs assessed as reduction in IL-1beta secretion at 500 nM preincubated with LPS for 4 hrs followed by compound addition for 30 mins and further stimulated with ATP for 30 mins by ELISA relative to control; type: cell-based; conditions: BMDM, time 1.0 hrs
[2] = target: NACHT, LRR and PYD domains-containing protein 3 (Mus musculus) (UniProt Q8R4B8); experiment: Inhibition of NLRP3 inflammasome activation in LPS/ATP-induced C57BL/6 mouse BMDMs assessed as reduction in IL-1beta secretion at 100 nM preincubated with LPS for 4 hrs followed by compound addition for 30 mins and further stimulated with ATP for 30 mins by ELISA relative to control; type: cell-based; conditions: BMDM, time 1.0 hrs
[3] = target: NACHT, LRR and PYD domains-containing protein 3 (Mus musculus, UniProt Q8R4B8); experiment: Inhibition of NLRP3 inflammasome activation in LPS/ATP-induced C57BL/6 mouse BMDMs assessed as reduction in IL-1beta secretion preincubated with LPS for 4 hrs followed by compound addition for 30 mins and further stimulated with ATP for 30 mins by ELISA; type: cell-based, BMDM
[4] = target: NACHT, LRR and PYD domains-containing protein 3 (Mus musculus) (UniProt Q8R4B8); experiment: Inhibition of NLRP3 inflammasome activation in LPS/ATP-induced C57BL/6 mouse BMDMs assessed as reduction in IL-1beta secretion at 200 nM preincubated with LPS for 4 hrs followed by compound addition for 30 mins and further stimulated with ATP for 30 mins by ELISA relative to control; type: cell-based; conditions: BMDM, time 1.0 hrs
hERG (KCNH2) = hERG (KCNH2) (Homo sapiens, UniProt Q12809); experiment: Inhibition of human ERG expressed in CHO cells at 40 uM relative to control; type: toxicity, cell-based; conditions: CHO cells that express human ERG
Chain of hERG (KCNH2) (Q12809 whole entry): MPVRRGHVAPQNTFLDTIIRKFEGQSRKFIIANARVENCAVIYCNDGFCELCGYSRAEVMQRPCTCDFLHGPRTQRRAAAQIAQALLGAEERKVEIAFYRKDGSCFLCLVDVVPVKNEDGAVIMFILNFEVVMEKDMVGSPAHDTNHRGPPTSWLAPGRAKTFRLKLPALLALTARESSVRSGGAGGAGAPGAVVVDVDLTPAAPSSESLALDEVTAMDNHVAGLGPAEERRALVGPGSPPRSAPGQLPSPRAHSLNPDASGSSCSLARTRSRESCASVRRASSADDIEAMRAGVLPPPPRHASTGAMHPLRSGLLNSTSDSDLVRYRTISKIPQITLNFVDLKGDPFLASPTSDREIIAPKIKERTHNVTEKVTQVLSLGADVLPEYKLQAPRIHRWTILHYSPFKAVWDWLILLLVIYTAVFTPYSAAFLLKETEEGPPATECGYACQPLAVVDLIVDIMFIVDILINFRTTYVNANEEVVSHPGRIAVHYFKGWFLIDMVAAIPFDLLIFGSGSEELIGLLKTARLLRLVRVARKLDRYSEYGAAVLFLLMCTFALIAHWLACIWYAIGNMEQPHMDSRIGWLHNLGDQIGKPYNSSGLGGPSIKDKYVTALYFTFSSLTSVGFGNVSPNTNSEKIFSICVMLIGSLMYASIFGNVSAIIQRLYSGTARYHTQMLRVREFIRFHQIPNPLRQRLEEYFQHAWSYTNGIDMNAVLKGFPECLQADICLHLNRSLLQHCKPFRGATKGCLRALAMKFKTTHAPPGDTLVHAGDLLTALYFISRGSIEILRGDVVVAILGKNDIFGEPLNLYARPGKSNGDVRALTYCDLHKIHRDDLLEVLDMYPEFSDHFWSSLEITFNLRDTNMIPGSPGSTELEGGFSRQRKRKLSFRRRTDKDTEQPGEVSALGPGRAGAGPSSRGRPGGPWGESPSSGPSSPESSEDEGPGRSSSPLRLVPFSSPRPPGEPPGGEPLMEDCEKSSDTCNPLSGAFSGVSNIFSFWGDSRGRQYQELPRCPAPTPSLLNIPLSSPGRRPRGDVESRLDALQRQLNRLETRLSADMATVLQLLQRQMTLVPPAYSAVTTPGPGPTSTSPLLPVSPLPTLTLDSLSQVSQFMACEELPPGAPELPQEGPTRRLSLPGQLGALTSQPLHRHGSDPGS

Chain of NACHT, LRR and PYD domains-containing protein 3 (Q8R4B8 whole entry, the tested form may be a part): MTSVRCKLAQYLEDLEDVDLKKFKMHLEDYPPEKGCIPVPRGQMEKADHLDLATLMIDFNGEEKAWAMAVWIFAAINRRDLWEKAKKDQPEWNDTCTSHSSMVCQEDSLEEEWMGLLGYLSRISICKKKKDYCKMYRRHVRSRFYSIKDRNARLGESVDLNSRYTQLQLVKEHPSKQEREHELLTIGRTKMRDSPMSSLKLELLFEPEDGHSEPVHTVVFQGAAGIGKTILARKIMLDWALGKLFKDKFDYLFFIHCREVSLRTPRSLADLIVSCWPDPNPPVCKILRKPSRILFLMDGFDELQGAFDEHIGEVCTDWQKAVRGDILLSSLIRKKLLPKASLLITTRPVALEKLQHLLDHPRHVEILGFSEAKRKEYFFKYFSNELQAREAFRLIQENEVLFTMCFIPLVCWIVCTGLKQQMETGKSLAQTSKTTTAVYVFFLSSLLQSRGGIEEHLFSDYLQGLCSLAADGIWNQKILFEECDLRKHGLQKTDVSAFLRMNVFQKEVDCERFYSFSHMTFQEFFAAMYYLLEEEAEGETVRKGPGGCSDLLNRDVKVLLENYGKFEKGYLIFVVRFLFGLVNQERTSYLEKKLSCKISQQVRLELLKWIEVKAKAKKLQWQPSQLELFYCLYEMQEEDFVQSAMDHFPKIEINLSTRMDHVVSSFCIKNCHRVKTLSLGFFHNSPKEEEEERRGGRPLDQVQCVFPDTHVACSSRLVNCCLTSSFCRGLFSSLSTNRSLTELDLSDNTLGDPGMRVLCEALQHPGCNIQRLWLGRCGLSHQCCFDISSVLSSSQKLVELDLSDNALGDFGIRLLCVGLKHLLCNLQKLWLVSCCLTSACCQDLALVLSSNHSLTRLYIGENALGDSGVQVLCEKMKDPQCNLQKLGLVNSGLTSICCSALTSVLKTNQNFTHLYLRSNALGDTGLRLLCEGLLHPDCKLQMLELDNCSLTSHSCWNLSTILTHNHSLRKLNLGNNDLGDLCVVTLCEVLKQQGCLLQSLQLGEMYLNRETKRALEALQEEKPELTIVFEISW
Chain of NACHT, LRR and PYD domains-containing protein 3 (Mus musculus) (Q8R4B8 whole entry, the tested form may be a part): as above

| Compound | inhibition [1] | inhibition [2] | IC50 [3] | inhibition [4] | inhibition at 40 µM (hERG (KCNH2)) |
| --- | --- | --- | --- | --- | --- |
| C=C1C(=O)[C@]23[C@H](O)[C@H]1CC[C@H]2[C@]12C=CCC(C)(C)[C@H]1[C@H](O)[C@@]3(OCc1cocn1)OC2 | 96.5% | 44.2% | 97.1 nM | 78.8% |  |
| C=C1C(=O)[C@]23[C@H](O)[C@H]1CC[C@H]2[C@]12C=CCC(C)(C)[C@H]1[C@H](O)[C@@]3(OCCC(=O)N1CCCCC1)OC2 | 82.1% | 43.7% | 147 nM | 52.4% |  |
| C=C1C(=O)[C@]23[C@H](O)[C@H]1CC[C@H]2[C@]12C=CCC(C)(C)[C@H]1[C@H](O)[C@@]3(OCCC(=O)NC1CCCC1)OC2 | 84.7% | 42.3% | 137 nM | 56% |  |
| C=C1C(=O)[C@]23[C@H](O)[C@H]1CC[C@H]2[C@]12C=CCC(C)(C)[C@H]1[C@H](O)[C@@]3(OCCC(=O)NC(C)C)OC2 | 84.8% | 56.2% | 90.6 nM | 63.6% |  |
| C=C1C(=O)[C@]23[C@H](O)[C@H]1CC[C@H]2[C@]12C=CCC(C)(C)[C@H]1[C@H](O)[C@@]3(OCCC(=O)NC1CCCCC1)OC2 | 74.1% | 36.5% | 194 nM | 40.6% |  |
| COc1cc(N)c(Cl)cc1C(=O)NC1CCN(CCCOc2ccc(F)cc2)CC1OC (stereo unspecified) [CISAPRIDE] |  |  |  |  | 98.7% |
| C=C1C(=O)[C@]23[C@H](O)[C@H]1CC[C@H]2[C@]12C=CCC(C)(C)[C@H]1[C@H](O)[C@@]3(OCCC(=O)NCCC)OC2 | 60% | 20.3% | 283 nM | 47.2% |  |
| C=C1C(=O)[C@]23[C@H](O)[C@H]1CC[C@H]2[C@]12C=CCC(C)(C)[C@H]1[C@H](O)[C@@]3(OCC(=O)O)OC2 | 55.4% | 12.9% | 406 nM | 25.5% |  |
| C=C1C(=O)[C@]23[C@H](O)[C@H]1CC[C@H]2[C@]12C=CCC(C)(C)[C@H]1[C@H](O)[C@@]3(OCCC(=O)NC1CCOCC1)OC2 | 66.2% | 18.5% | 292 nM | 36.4% |  |
| C=C1C(=O)[C@]23[C@H](O)[C@H]1CC[C@H]2[C@]12C=CCC(C)(C)[C@H]1[C@H](O)[C@@]3(OCc1ccc(Cl)cc1)OC2 | 75.5% | 40.5% |  | 63.3% |  |
| C=CCNC(=O)CCO[C@@]12OC[C@]3(C=CCC(C)(C)[C@H]3[C@@H]1O)[C@@H]1CC[C@H]3C(=C)C(=O)[C@]12[C@@H]3O | 93.7% | 52.6% | 102 nM | 62.1% |  |
| C=C1C(=O)[C@]23[C@H](O)[C@H]1CC[C@H]2[C@]12C=CCC(C)(C)[C@H]1[C@H](O)[C@@]3(OCc1ccc(C#N)cc1)OC2 | 89.2% | 38.8% |  | 64.7% |  |
| C=C1C(=O)[C@]23[C@H](O)[C@H]1CC[C@H]2[C@]12C=CCC(C)(C)[C@H]1[C@H](O)[C@@]3(OCCCc1ccc(Cl)cc1)OC2 | 65% | 7.3% |  | 47.8% |  |
| C=C1C(=O)[C@]23[C@H](O)[C@H]1CC[C@H]2[C@]12C=CCC(C)(C)[C@H]1[C@H](O)[C@@]3(OCCC(=O)N1CCCC1)OC2 | 79.1% | 36.4% | 161 nM | 55.9% |  |
| C=C1C(=O)[C@]23[C@H](O)[C@H]1CC[C@H]2[C@]12C=CCC(C)(C)[C@H]1[C@H](O)[C@@]3(OCc1ccc3ccccc3c1)OC2 | 85.7% | 35.2% |  | 47.5% |  |
| C=C1C(=O)[C@]23[C@H](O)[C@H]1CC[C@H]2[C@]12C=CCC(C)(C)[C@H]1[C@H](O)[C@@]3(OCc1cnco1)OC2 | 89.5% | 50.6% | 99.3 nM | 83% |  |
| C=C1C(=O)[C@]23[C@H](O)[C@H]1CC[C@H]2[C@]12C=CCC(C)(C)[C@H]1[C@H](O)[C@@]3(OCc1ccccc1)OC2 | 88.1% | 42.5% |  | 70.1% |  |
| C=C1C(=O)[C@]23[C@H](O)[C@H]1CC[C@H]2[C@]12C=CCC(C)(C)[C@H]1[C@H](O)[C@@]3(OCCC(=O)N(CCC)CCC)OC2 | 71.6% | 25.4% | 178 nM | 67.4% |  |
| C=C1C(=O)[C@]23[C@H](OCc4ccc(Cl)cc4)[C@H]1CC[C@H]2[C@]12C=CCC(C)(C)[C@H]1[C@H](O)[C@@]3(O)OC2 | 72.4% | 44.8% |  | 58.7% |  |

| Compound | inhibition [1] | inhibition [2] | IC50 [3] | inhibition [4] | inhibition at 40 µM (hERG (KCNH2)) |
| --- | --- | --- | --- | --- | --- |
| C=C1C(=O)[C@]23[C@H](O)[C@H]1CC[C@H]2[C@]12C=CCC(C)(C)[C@H]1[C@H](O)[C@@]3(OCCCCCc1ccccc1)OC2 | 63.1% | 13.3% |  | 44.6% |  |
| C=C1C(=O)[C@]23[C@H](O)[C@H]1CC[C@H]2[C@]12C=CCC(C)(C)[C@H]1[C@H](O)[C@@]3(OCCC(=O)NC1CC1)OC2 | 65.1% | 33.3% | 242 nM | 38% |  |
| C=C1C(=O)[C@]23[C@H](O)[C@H]1CC[C@H]2[C@]12C=CCC(C)(C)[C@H]1[C@H](O)[C@@]3(OCCC(=O)NC)OC2 | 76.7% | 27.2% | 216 nM | 43.1% |  |
| C=C1C(=O)[C@]23[C@H](O)[C@H]1CC[C@H]2[C@]12C=CCC(C)(C)[C@H]1[C@H](O)[C@@]3(OCCC(=O)N1CCN(C)CC1)OC2 | 85.3% | 45% | 98.5 nM | 60.3% |  |
| C=C1C(=O)[C@]23[C@H](O)[C@H]1CC[C@H]2[C@]12C=CCC(C)(C)[C@H]1[C@H](O)[C@@]3(OCC)OC2 | 66.1% | 31.3% |  | 46.5% |  |
| C=C1C(=O)[C@]23[C@H](OCc4ccc5ccccc5c4)[C@H]1CC[C@H]2[C@]12C=CCC(C)(C)[C@H]1[C@H](O)[C@@]3(O)OC2 | 71.4% | 33.1% |  | 50.2% |  |
| C=C1C(=O)[C@]23[C@H](O)[C@H]1CC[C@H]2[C@@]12CO[C@]3(O)[C@@H](O)[C@@H]1C(C)(C)CC[C@@H]2O [ORIDONIN] | 41.2% | 0.2% | 780 nM | 14.3% |  |
| C=C1C(=O)[C@]23[C@H](O)[C@H]1CC[C@H]2[C@]12C=CCC(C)(C)[C@H]1[C@H](O)[C@@]3(OCCC(=O)NCC(C)C)OC2 | 79.1% | 40.7% | 137 nM | 59.9% |  |
| C=C1C(=O)[C@]23[C@H](OCc4ccc(C#N)cc4)[C@H]1CC[C@H]2[C@]12C=CCC(C)(C)[C@H]1[C@H](O)[C@@]3(O)OC2 | 86.6% | 31.1% |  | 69.6% |  |
| C=C1C(=O)[C@]23[C@H](O)[C@H]1CC[C@H]2[C@]12C=CCC(C)(C)[C@H]1[C@H](O)[C@@]3(OCCCC(=O)O)OC2 | 83% | 57.1% | 81.7 nM | 68.7% |  |
| C=C1C(=O)[C@]23[C@H](O)[C@H]1CC[C@H]2[C@]12C=CCC(C)(C)[C@H]1[C@H](O)C3(OCc1cccnc1)OC2 (single isomer, unassigned) | 68.4% | 24.5% | 232 nM | 44.5% |  |
| C=C1C(=O)[C@]23[C@H](OCc4ccccc4)[C@H]1CC[C@H]2[C@]12C=CCC(C)(C)[C@H]1[C@H](O)[C@@]3(O)OC2 | 85.5% | 45.1% |  | 68% |  |
| C=C1C(=O)[C@]23[C@H](O)[C@H]1CC[C@H]2[C@]12C=CCC(C)(C)[C@H]1[C@H](O)[C@@]3(OCc1nccs1)OC2 | 63.2% | 46.2% | 1890 nM | 56.7% |  |
| C=C1C(=O)[C@]23[C@H](O)[C@H]1CC[C@H]2[C@]12C=CCC(C)(C)[C@H]1[C@H](O)[C@@]3(O)OC2 | 64.3% | 30.3% |  | 45.3% |  |
| C=C1C(=O)[C@]23[C@H](O)[C@H]1CC[C@H]2[C@]12C=CCC(C)(C)[C@H]1[C@H](O)[C@@]3(OCCC(=O)N(C)C)OC2 | 89% | 56.7% | 103 nM | 78.2% |  |
| C=C1C(=O)[C@]23[C@H](O)[C@H]1CC[C@H]2[C@]12C=CCC(C)(C)[C@H]1[C@H](O)[C@@]3(OCCCc1ccccc1)OC2 | 66.6% | 24% |  | 48.4% |  |
| C=C1C(=O)[C@]23[C@H](O)[C@H]1CC[C@H]2[C@]12C=CCC(C)(C)[C@H]1[C@H](O)[C@@]3(OCc1ccncc1)OC2 | 77.3% | 47.3% | 100 nM | 56% |  |
| C=C1C(=O)[C@]23[C@H](O)[C@H]1CC[C@H]2[C@]12C=CCC(C)(C)[C@H]1[C@H](O)[C@@]3(OCCC(=O)NCCOC)OC2 | 69.9% | 18% | 286 nM | 49% |  |
| C=C1C(=O)[C@]23[C@H](O)[C@H]1CC[C@H]2[C@]12C=CCC(C)(C)[C@H]1[C@H](O)[C@@]3(OCc1nc(-c3ccccc3)cs1)OC2 | 93.9% | 60.9% | 80.5 nM | 79.6% |  |

— ChEMBL document CHEMBL5506055, “Hit-to-Lead Optimization of the Natural Product Oridonin as Novel NLRP3 Inflammasome Inhibitors with Potent Anti-Inflammation Activity” (J Med Chem, 2024)
